Consider one compound from US8338420B1, “Treatment of Parkinson's disease and enhancement of dopamine signal using PDE 10 inhibitor” (Mitsubishi Tanabe Pharma Corporation, priority 2002, dated 2012).

A value given as a limit tells only on which side of the number the result lay.

Test [1] deals with T1, PDE7 (PDE7A) (Homo sapiens, UniProt Q13946).
T1 construct: His tag (hexahistidine, pcDNA4/HisMax) (N); made in house
As to the kind of experiment: PDE assay, recombinant human PDE7A. The conditions noted are these: substrate about 4.8 nM [3H]-cAMP and 0.1 μM cAMP. The test is classed as biochemical. The source says:
Based on the information of cDNA sequence of human PDE7A (Genbank/EMBL Accession No. NM002603), a cDNA encoding human PDE7A was cloned by PCR method, according to a method described in Sasaki et al. (Sasaki et al., Biochem. Biophys. Res. Commun., vol. 271, pp. 575-583, 2000). Further, based on the information of cDNA sequence of human PDE8A (Genbank/EMBL Accession No. AF388183), a cDNA encoding human PDE8A was cloned by PCR method, according to a method described in Gamanuma et al. (Gamanuma et al., Cell Signal, 2003, vol. 15, pp. 565-574). Further, a cDNA encoding human PDE11A was obtained, according to a method reported in Yuasa et al. (Yuasa et al., J. Biol. Chem., vol. 275, pp. 31469-31479, 2000). Using these cDNAs, recombinant proteins of human PDE7A, human PDE8A, and human PDE11A were prepared as follows.
DNA fragments comprising a cDNA encoding human PDE7A, human PDE8A or human PDE11A were linked to pcDNA4/HisMax (available from Invitrogen), to give a vector plasmid for expression of human proteins, with a histidine tag peptide (hexahistidine), added to the N-terminus. COS-7 cells were transfected with these vector plasmids, and the cells were cultured in Dulbecco's modified Eagle medium containing 10% bovine fetal serum for about 24 hours. […]

The test system of test [2] is marmoset MPTP model. Description: Marmoset MPTP model, effect on L-dopa efficacy. The class given is in vivo. The conditions noted are these: 0.3 mg/kg or 1 mg/kg, i.v., together with L-dopa, versus vehicle with L-dopa. The method, then:
Using marmoset MPTP models, effects of test compound on pharmaceutical efficacy of L-dopa administration were tested as follows.
About 16 weeks before carrying out the tests, marmosets were administered with MPTP (1-methyl-4-phenyl-1,2,3,6-tetrahydropyridine) (2.5 mg/kg, i.v.), according to the method described in the literature (Fukuzaki et al., Pharmacol. Biochem. Behav., vol. 67 No. 1, pp. 121-129, September 2000), to degenerate dopaminergic neurons in the brain, and individuals showing parkinsonian symptoms were used.
Using these marmosets (age 3-4 years, bodyweight 300-400 g), the following three kinds of tests were performed. […]
After administration of test compound (PDE10 inhibitor) (or vehicle) and L-dopa+benserazide, each individual was transferred to an activity cage equipped with four photo cell sensor units, and observation was continued for 6 hours at longest. For each individual, locomotor activity and motor disability score were evaluated in every 10-minute interval.
Motor disability was assessed according to the following 7 evaluation items, and total score of the 7 items were regarded as the motor disability score. […]

T1 sequence (Q13946 1-456 isoform Q13946-2): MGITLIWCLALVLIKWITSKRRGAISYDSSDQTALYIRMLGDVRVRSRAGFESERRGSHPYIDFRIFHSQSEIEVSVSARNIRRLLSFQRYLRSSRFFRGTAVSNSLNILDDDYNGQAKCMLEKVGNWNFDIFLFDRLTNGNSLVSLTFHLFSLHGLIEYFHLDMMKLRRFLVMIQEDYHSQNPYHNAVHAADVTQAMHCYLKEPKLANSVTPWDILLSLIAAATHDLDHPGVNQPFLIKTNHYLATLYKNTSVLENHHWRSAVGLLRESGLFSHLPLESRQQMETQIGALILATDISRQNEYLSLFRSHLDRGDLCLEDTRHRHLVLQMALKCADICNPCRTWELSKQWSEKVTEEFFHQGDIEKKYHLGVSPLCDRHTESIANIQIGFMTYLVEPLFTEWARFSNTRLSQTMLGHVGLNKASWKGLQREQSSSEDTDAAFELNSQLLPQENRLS

For the compound `COc1ccc(-c2cc(N3CCCC3)nc(/C=C/c3nc(-n4ccnc4)c4ccccc4n3)n2)cc1OC` [Compound A, 2-{(E)-2-[4-(1-imidazolyl)-quinazolin-2-yl]}ethenyl-4-(3,4-dimethoxy)phenyl-6-(pyrrolidin-1-yl)pyrimidine], the half-inhibitory concentration (IC50) in test [1] was greater than 1000 nM. For the same compound, the “effects of L-dopa to alleviate symptoms (locomotor activity and motor disability score)” value in test [2] is “enhanced and/or prolonged duration of effects of L-dopa to alleviate symptoms”.
